Values after ≈ are worked out from the molar mass of the structure shown.
Columns and labels:
Assay in all cases: ≥ marks a high value that may be exact or a test limit, other limits are often not marked, values filed in µg/mL are converted to µM
[1] = system: Candida albicans NCTC 3179
[2] = system: Escherichia coli ATCC 25922
[3] = system: Staphylococcus aureus ATCC 25923
[4] = system: Acinetobacter baumannii ATCC 19606
Acinetobacter baumannii = system: Acinetobacter baumannii
[5] = system: Bacillus subtilis ATCC 6051
[6] = system: Candida albicans ATCC 90028
[7] = system: Cryptococcus neoformans ATCC 208821
[8] = system: Klebsiella pneumoniae ATCC 13883
[9] = system: Klebsiella pneumoniae ATCC 700603
[10] = system: Klebsiella pneumoniae ATCC BAA-2146
Klebsiella pneumoniae = system: Klebsiella pneumoniae
[11] = system: Pseudomonas aeruginosa ATCC 27853
Pseudomonas aeruginosa = system: Pseudomonas aeruginosa
[12] = system: Staphylococcus aureus ATCC 43300
[13] = system: Bacillus cereus ATCC 14579
[14] = system: Bacillus subtilis ATCC 23857
[15] = system: Cryptococcus neoformans ATCC 28957
[16] = system: Fusarium oxysporum f.sp. vasinfectum
Fusarium oxysporum = system: Fusarium oxysporum
Fusarium solani = system: Fusarium solani
[17] = system: Pectobacterium carotovorum
[18] = system: Pseudomonas syringae pv. tabaci
Ramulariopsis gossypii = system: Ramulariopsis gossypii
Rhizoctonia solani = system: Rhizoctonia solani
Trichoderma asperellum = system: Trichoderma asperellum
[19] = system: Xanthomonas campestris pv. citri
[20] = system: Acinetobacter baumannii Q12-0809
[21] = system: Acinetobacter baumannii Q12-0867
[22] = system: Acinetobacter baumannii Q13-0717
[23] = system: Campylobacter jejuni ATCC 33292
[24] = system: Campylobacter jejuni NCTC 11161
[25] = system: Campylobacter jejuni NCTC 11351
[26] = system: Enterococcus faecalis JH-2-2
Escherichia coli K-12 = system: Escherichia coli K-12
Escherichia coli = system: Escherichia coli
[27] = system: Klebsiella pneumoniae NCTC 13442
[28] = system: Klebsiella pneumoniae Q14-0095
[29] = system: Klebsiella pneumoniae Q14-0285
[30] = system: Listeria monocytogenes NCTC 11994
[31] = system: Pseudomonas aeruginosa PAO1
[32] = system: Pseudomonas aeruginosa Q12-0535
[33] = system: Pseudomonas aeruginosa Q14-0208
[34] = system: Pseudomonas aeruginosa Q14-0890
[35] = system: Salmonella typhimurium SL1344
[36] = system: Staphylococcus aureus ATCC 29213
[37] = system: Staphylococcus aureus ATCC 33591
[38] = system: Staphylococcus aureus MRSA-15
[39] = system: Staphylococcus aureus NCTC 12493
[40] = system: Staphylococcus aureus Q14-0320
[41] = system: Staphylococcus aureus RN4220
[42] = system: Staphylococcus aureus USA 300

Question: With CC[C@H](C)[C@H](NC(=O)[C@H](C)NC(=O)[C@H](CC(=O)O)NC(=O)[C@H](CC(C)C)NC(=O)[C@H](CC(N)=O)NC(=O)[C@H](C)N)C(=O)N[C@H](C(=O)N[C@@H](CCCCN)C(=O)N[C@H](C(=O)N[C@@H](CCC(N)=O)C(=O)N[C@@H](C)C(=O)N[C@@H](Cc1c[nH]c2ccccc12)C(=O)N[C@@H](C)C(=O)N[C@@H](CCCN=C(N)N)C(=O)N[C@@H](CCSC)C(=O)N[C@@H](Cc1c[nH]c2ccccc12)C(=O)N[C@@H](C)C(=O)N[C@@H](C)C(=O)N[C@@H](CCCN=C(N)N)C(=O)N[C@@H](CCCN=C(N)N)C(=O)N[C@@H](CCC(N)=O)C(=O)N[C@@H](Cc1ccc(O)cc1)C(=O)N[C@@H](CC(C)C)C(=O)O)[C@@H](C)CC)[C@@H](C)CC [ANLDAIIKIQAWARMWAARRQYL] as the molecule, how does the MIC [1] read?
Answer: The MIC was ≥ 90.6 µM.

Question: And the MIC [2]?
Answer: The MIC was 2.03 µM (≈ 5.6 µg/mL).

Question: And the MIC [3]?
Answer: Its MIC is 11.2 µM (≈ 31 µg/mL).

Question: CC[C@H](C)[C@@H]1NC(=O)CNC(=O)[C@H](CCCN=C(N)N)NC(=O)CNC(=O)[C@@H]2CSSC[C@H](NC1=O)C(=O)N[C@@H](Cc1ccc(O)cc1)C(=O)N[C@@H](CCCN=C(N)N)C(=O)N[C@@H](CCCN=C(N)N)C(=O)N[C@H](C(=O)N[C@@H](CCCN=C(N)N)C(=O)O)CSSC[C@H](NC(=O)[C@H](Cc1c[nH]c3ccccc13)NC(=O)[C@@H](N)CCCCN)C(=O)N[C@@H](Cc1ccccc1)C(=O)N[C@@H](CCCN=C(N)N)C(=O)N[C@@H](C(C)C)C(=O)N2 [KWCFRVCGRGICYRRCR] was tested. Which MIC [4] did it give?
Answer: Its MIC is 0.462 µM (≈ 0.998 µg/mL).

Question: What about the MIC (Acinetobacter baumannii) of the same molecule?
Answer: The MIC was 0.925 µM (≈ 2 µg/mL).

Question: What about the MIC [5] of the same molecule?
Answer: Its MIC is 0.231 µM (≈ 0.499 µg/mL).

Question: What about the MIC [6] of the same molecule?
Answer: Its MIC is 7.4 µM (≈ 16 µg/mL).

Question: And the MIC [7]?
Answer: Its MIC is 1.85 µM (≈ 3.99 µg/mL).

Question: And the MIC [2]?
Answer: The MIC was 0.231 µM (≈ 0.499 µg/mL).

Question: And the MIC [8]?
Answer: Its MIC is 0.925 µM (≈ 2 µg/mL).

Question: And the MIC [9]?
Answer: Its MIC is 3.7 µM (≈ 7.99 µg/mL).

Question: What about the MIC [10] of the same molecule?
Answer: Its MIC is 3.7 µM (≈ 7.99 µg/mL).

Question: And the MIC (Klebsiella pneumoniae)?
Answer: The MIC was > 7.4 µM.

Question: What about the MIC [11] of the same molecule?
Answer: Its MIC is 3.7 µM (≈ 7.99 µg/mL).

Question: What about the MIC (Pseudomonas aeruginosa) of the same molecule?
Answer: The MIC was 7.4 µM (≈ 16 µg/mL).

Question: And the MIC [12]?
Answer: The MIC was 7.4 µM (≈ 16 µg/mL).

Question: What does the source list for CC(C)C[C@H](NC(=O)[C@H](C)NC(=O)[C@H](C)NC(=O)[C@@H](NC(=O)[C@H](CC(C)C)NC(=O)[C@H](CCCCN)NC(=O)[C@@H](NC(=O)[C@H](CC(C)C)NC(=O)[C@H](CCCN=C(N)N)NC(=O)[C@H](Cc1cnc[nH]1)NC(=O)[C@@H](N)CC(C)C)C(C)C)C(C)C)C(=O)N[C@@H](CC(C)C)C(=O)N[C@@H](CCCN=C(N)N)C(=O)NCC(=O)N[C@@H](Cc1ccc(O)cc1)C(=O)N[C@@H](C)C(=O)N[C@@H](CO)C(=O)N[C@@H](CCCCN)C(=O)N[C@H](C(=O)N[C@@H](CC(=O)O)C(=O)N[C@H](C(=O)N[C@@H](Cc1cnc[nH]1)C(N)=O)[C@@H](C)O)C(C)C [LHRLVKLVAALLRGYASKVDTH]?
Answer: MIC [13]: 6.67 µM (≈ 16.4 µg/mL); MIC [14]: 2 µM (≈ 4.92 µg/mL); MIC [6]: 4 µM (≈ 9.84 µg/mL); MIC [15]: 8 µM (≈ 19.7 µg/mL); MIC [2]: 2 µM (≈ 4.92 µg/mL); MIC [16]: 2 µM (≈ 4.92 µg/mL); MIC (Fusarium oxysporum): ≥ 32 µM; MIC (Fusarium solani): ≥ 32 µM; MIC [17]: 3.33 µM (≈ 8.19 µg/mL); MIC [11]: 4 µM (≈ 9.84 µg/mL); MIC [18]: 4 µM (≈ 9.84 µg/mL); MIC (Ramulariopsis gossypii): 4 µM (≈ 9.84 µg/mL); MIC (Rhizoctonia solani): 16 µM (≈ 39.4 µg/mL); MIC [3]: 2 µM (≈ 4.92 µg/mL); MIC (Trichoderma asperellum): 16 µM (≈ 39.4 µg/mL); MIC [19]: 4 µM (≈ 9.84 µg/mL)

Question: Which results are given for CC(C)C[C@H](NC(=O)[C@H](CS)NC(=O)[C@H](CC(C)C)NC(=O)[C@H](CCCN=C(N)N)NC(=O)[C@H](Cc1c[nH]c2ccccc12)NC(=O)[C@@H]1CCCN1C(=O)[C@@H](NC(=O)[C@H](CCCN=C(N)N)NC(=O)[C@H](CCCN=C(N)N)NC(=O)[C@H](Cc1ccccc1)NC(=O)[C@H](CCCN=C(N)N)NC(=O)[C@H](C)NC(=O)[C@@H](NC(=O)[C@H](Cc1ccccc1)NC(=O)[C@H](CCCN=C(N)N)NC(=O)[C@@H](N)CC(N)=O)[C@@H](C)O)[C@@H](C)O)C(=O)N[C@@H](CCC(N)=O)C(=O)N[C@@H](Cc1ccccc1)C(=O)N[C@@H](CCCN=C(N)N)C(=O)N[C@@H](CCC(N)=O)C(=O)O [NRFTARFRRTPWRLCLQFRQ]?
Answer: MIC [20]: 6.03 µM (≈ 16 µg/mL); MIC [21]: 3.02 µM (≈ 8 µg/mL); MIC [22]: 12.1 µM (≈ 32 µg/mL); MIC [23]: 24.1 µM (≈ 64 µg/mL); MIC [24]: ≥ 96.5 µM; MIC [25]: ≥ 48.2 µM; MIC [26]: 24.1 µM (≈ 64 µg/mL); MIC (Escherichia coli K-12): 24.1 µM (≈ 64 µg/mL); MIC (Escherichia coli): 48.2 µM (≈ 128 µg/mL); MIC [9]: 12.1 µM (≈ 32 µg/mL); MIC [27]: 12.1 µM (≈ 32 µg/mL); MIC [28]: 12.1 µM (≈ 32 µg/mL); MIC [29]: 24.1 µM (≈ 64 µg/mL); MIC [30]: 12.1 µM (≈ 32 µg/mL); MIC [11]: 48.2 µM (≈ 128 µg/mL); MIC [31]: 12.1 µM (≈ 32 µg/mL); MIC [32]: ≥ 48.2 µM; MIC [33]: 12.1 µM (≈ 32 µg/mL); MIC [34]: 6.03 µM (≈ 16 µg/mL); MIC [35]: 24.1 µM (≈ 64 µg/mL); MIC [36]: 48.2 µM (≈ 128 µg/mL); MIC [37]: 24.1 µM (≈ 64 µg/mL); MIC [38]: 12.1 µM (≈ 32 µg/mL); MIC [39]: 24.1 µM (≈ 64 µg/mL); MIC [40]: ≥ 48.2 µM; MIC [41]: 12.1 µM (≈ 32 µg/mL); MIC [42]: 24.1 µM (≈ 64 µg/mL)

— DBAASP
